Test results as given in patent publication US10238670B2, “9-aminomethyl minocycline compounds and methods of use thereof in urinary tract infection (UTI) treatment” (Paratek Pharmaceuticals, Inc., priority 2016, dated 2019).
≈ marks a conversion by molar mass, not a printed value.

Tests used:
[1] = Phase 1b study, investigator's assessment of clinical response (EOT, PTE); type: in vivo, human
Experimental: b) Investigator's Assessment of Clinical Response Investigator's Assessment of Clinical Response at EOT
The EOT visit was conducted on Day 6. This evaluation was also conducted for any prematurely withdrawn subject. The following assessments were performed at the EOT visit: subject assessment of UTI signs and symptoms severity, urine culture and leukocyte esterase dipstick test or microscopic examination, physical examination, vital signs, 12-lead ECG, hematology and serum chemistry, serum pregnancy test (all subjects) and investigator's assessment of clinical response. Subjects, who discontinued study treatment before completing the study, and those who prematurely withdrew from the study for any reason, were scheduled for a visit as soon as possible, at which time all of the assessments listed for the EOT visit were performed.
It was determined whether the subject met the criteria of 1 of the following clinical outcomes: • Clinical Success: Resolution of signs and symptoms at the EOT visit and no use of additional antimicrobial therapy. • Clinical Failure: No apparent response to therapy, persistence of signs and symptoms of infection at the EOT visit, or use of additional antimicrobial therapy for the current infection. • Indeterminate: EOT visit not completed. Investigator's Assessment of Clinical Response at PTE
The PTE visit was conducted 5 to 9 days after the subject's last day of therapy. This evaluation was also conducted for any prematurely withdrawn subject. The following assessments were performed at the PTE visit: urine culture and leukocyte esterase dipstick test or microscopic examination, physical examination, vital signs, hematology, serum chemistry, serum pregnancy test (all subjects), and investigator's assessment of clinical response.
It was determined whether the subject met the criteria of 1 of the following clinical outcomes: • Clinical Success: Resolution of signs and symptoms at the PTE visit and no use of additional antimicrobial therapy. • Clinical Failure: No apparent response to therapy, persistence of signs and symptoms of infection, or reappearance of signs and symptoms at or before the PTE visit, or use of additional antimicrobial therapy for the current infection. • Indeterminate: PTE visit not completed.
Investigator's assessment of clinical response at the EOT and PTE visits with outcomes of Clinical Success, Clinical Failure or Indeterminate as defined above. Subjects who were a clinical failure at an earlier time point were considered a clinical failure at subsequent time points. The number and percentage of subjects with an Investigator's assessment of success, failure and indeterminate were presented for EOT and PTE visits by treatment group.

E. coli FQR = experiment: In vitro MIC, 2010 surveillance isolates; type: cell-based, Escherichia coli; conditions: N=1264
P. mirabilis = experiment: In vitro MIC, 2010 surveillance isolates; type: cell-based; conditions: N=384
E. coli (ATCC 25922) = experiment: Broth microdilution MIC against planktonic E. coli; type: cell-based; conditions: Escherichia coli, ATCC25922, extrapolated from OD650 plot after 24 hours, read-out: minimum inhibitory concentration (MIC)
Experimental: Antimicrobial activity of Compound 1 against E. coli (ATCC 25922) was determined using a standard broth microdilution method (CLSI in Methods for Dilution Antimicrobial Susceptibility Tests for Bacteria That Grow Aerobically, Approved Standard M7-A8, Clinical and Laboratory Standards Institute, Wayne, Pa. (USA), 2011, incorporated herein by reference) with slight modifications.

S. saprophyticus = experiment: In vitro activity in urine relative to standard media; type: cell-based
[2] = complicated skin and skin structure infection; cited from earlier work

Compound: CN(C)c1cc(CNCC(C)(C)C)c(O)c2c1C[C@H]1C[C@H]3[C@H](N(C)C)C(O)=C(C(N)=O)C(=O)[C@@]3(O)C(O)=C1C2=O [Compound 1, 9-[(2,2-dimethyl-propylamino)-methyl]-minocycline]
- Reason for Clinical Failure: Persistence of signs and symptoms of infection at or before current visit ([1]; EOT, IV_PO300): 0 (0.0) n (%)
- Clinical Failure ([1]; EOT, IV_PO300 (N = 11)): 0 (0.0) n (%)
- Clinical Success ([1]; EOT, IV_PO300 (N = 11)): 10 (90.9) n (%)
- Indeterminate ([1]; EOT, IV_PO300 (N = 11)): 1 (9.1) n (%)
- Reason for Clinical Failure: Persistence of signs and symptoms of infection at or before current visit ([1]; EOT, PO300): 0 (0.0) n (%)
- Clinical Failure ([1]; EOT, PO300 (N = 10)): 0 (0.0) n (%)
- Clinical Success ([1]; EOT, PO300 (N = 10)): 10 (100.0) n (%)
- Indeterminate ([1]; EOT, PO300 (N = 10)): 0 (0.0) n (%)
- Reason for Clinical Failure: Persistence of signs and symptoms of infection at or before current visit ([1]; EOT, PO450): 1 (100.0) n (%)
- Clinical Failure ([1]; EOT, PO450 (N = 10)): 1 (10.0) n (%)
- Clinical Success ([1]; EOT, PO450 (N = 10)): 9 (90.0) n (%)
- Indeterminate ([1]; EOT, PO450 (N = 10)): 0 (0.0) n (%)
- Reason for Clinical Failure: Persistence of signs and symptoms of infection at or before current visit ([1]; PTE, IV_PO300): 0 (0.0) n (%)
- Reason for Clinical Failure: Use of additional systemic antimicrobial therapy for the current infection ([1]; PTE, IV_PO300): 0 (0.0) n (%)
- Clinical Failure ([1]; PTE, IV_PO300 (N = 11)): 0 (0.0) n (%)
- Clinical Success ([1]; PTE, IV_PO300 (N = 11)): 11 (100.0) n (%)
- Indeterminate ([1]; PTE, IV_PO300 (N = 11)): 0 (0.0) n (%)
- Reason for Clinical Failure: Persistence of signs and symptoms of infection at or before current visit ([1]; PTE, PO300): 2 (100.0) n (%)
- Reason for Clinical Failure: Use of additional systemic antimicrobial therapy for the current infection ([1]; PTE, PO300): 0 (0.0) n (%)
- Clinical Failure ([1]; PTE, PO300 (N = 10)): 2 (20.0) n (%)
- Clinical Success ([1]; PTE, PO300 (N = 10)): 7 (70.0) n (%)
- Indeterminate ([1]; PTE, PO300 (N = 10)): 0 (0.0) n (%)
- Reason for Clinical Failure: Persistence of signs and symptoms of infection at or before current visit ([1]; PTE, PO450): 1 (50.0) n (%)
- Reason for Clinical Failure: Use of additional systemic antimicrobial therapy for the current infection ([1]; PTE, PO450): 1 (50.0) n (%)
- Clinical Failure ([1]; PTE, PO450 (N = 10)): 2 (20.0) n (%)
- Clinical Success ([1]; PTE, PO450 (N = 10)): 8 (80.0) n (%)
- Indeterminate ([1]; PTE, PO450 (N = 10)): 0 (0.0) n (%)
- Cumulative % Inhibition at MIC (E. coli FQR; MIC 1 μg/ml): 64.4%
- Cumulative % Inhibition at MIC (E. coli FQR; MIC 2 μg/ml): 89.2%
- Cumulative % Inhibition at MIC (E. coli FQR; MIC 4 μg/ml): 97.7%
- Cumulative % Inhibition at MIC (E. coli FQR; MIC 8 μg/ml): 99.6%
- Cumulative % Inhibition at MIC (E. coli FQR; MIC 16 μg/ml): 99.9%
- Cumulative % Inhibition at MIC (E. coli FQR; MIC ≤0.5 μg/ml, listed as head image P00008): 29.6%
- Cumulative % Inhibition at MIC (E. coli FQR; MIC ≥32 μg/ml): 100%
- Cumulative % Inhibition at MIC (P. mirabilis; MIC 1 μg/ml): 0.3%
- Cumulative % Inhibition at MIC (P. mirabilis; MIC 2 μg/ml): 1.3%
- Cumulative % Inhibition at MIC (P. mirabilis; MIC 4 μg/ml): 5.7%
- Cumulative % Inhibition at MIC (P. mirabilis; MIC 8 μg/ml): 22.9%
- Cumulative % Inhibition at MIC (P. mirabilis; MIC 16 μg/ml): 56.8%
- Cumulative % Inhibition at MIC (P. mirabilis; MIC ≤0.5 μg/ml): 0%
- Cumulative % Inhibition at MIC (P. mirabilis; MIC ≥32 μg/ml): 100%
- MIC (E. coli (ATCC 25922)): 1.13 µg/mL (≈ 2.03 µM)
- activity in urine relative to standard media (S. saprophyticus): stable
- clinical efficacy and tolerability [2]: comparable to linezolid
